Experimental data from patent US7309788B2, “Method for preparing pyrimidinone compound and pharmaceutically acceptable salts thereof” (Boryung Pharmaceutical Co., Ltd., priority 2001, dated 2007).

Assay: Stability: hourly moisture content (moisture absorption from the air)
Type: physicochemical
Source text: As a result, the moisture content increased, as the time went by. […] The elementary analysis data for the aforementioned hydrates is illustrated in the following Table 2.

- moisture content (60% RH, Time 1 hour): 6.2%
- moisture content (60% RH, Time 2 hour): 9.1%
- moisture content (60% RH, Time 3 hour): 9.15%
- moisture content (60% RH, Time 4 hour): 9.1%
- moisture content (60% RH, Time 5 hour): 9.2%
- moisture content (60% RH, Time 6 hour): 9.1%
- moisture content (75% RH, Time 1 hour): 9.05%
- moisture content (75% RH, Time 2 hour): 9.1%
- moisture content (75% RH, Time 3 hour): 9.1%
- moisture content (75% RH, Time 4 hour): 9.15%
- moisture content (75% RH, Time 5 hour): 9.2%
- moisture content (75% RH, Time 6 hour): 9.1%
- moisture content (Room temperature & Room humidity, Time 1 hour): 3.4%
- moisture content (Room temperature & Room humidity, Time 2 hour): 5.6%
- moisture content (Room temperature & Room humidity, Time 3 hour): 9.1%
- moisture content (Room temperature & Room humidity, Time 4 hour): 9.2%
- moisture content (Room temperature & Room humidity, Time 5 hour): 9.1%
- moisture content (Room temperature & Room humidity, Time 6 hour): 9.1%
SMILES: CCCCc1nc(C)c(CC(=S)N(C)C)c(=O)n1Cc1ccc(-c2ccccc2-c2nnn[nH]2)cc1 [Example 3, 2-n-butyl-5-dimethylaminothiocarbonylmethyl-6-methyl-3-[[2′-(1 H-tetrazol-5-yl)biphenyl-4-yl]methyl]-pyrimidin-4(3H)-one]
